Measurements from US8003785B2 (Takeda Pharmaceutical Company Limited, priority 2008, dated 2011).

These molecules were tested against T1, PLK1 (Homo sapiens, UniProt P53350) (assay: Biochemical Characterization Assay: HTRF kinase assay, GST-PLK1 phosphorylation of GST-p53). Details: GST-PLK1, GST-p53 substrate, ATP.
T1 construct: Full-length, active GST-PLK1 is purified from Sf9 insect cells; made in house; host or cells: Sf9 insect cells
Summary of the method: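 HTRF read-out of p53 phosphorylation: after EDTA stop, anti-phospho-p53 antibody bound 30 min at 37 °C in HEPES pH 7 buffer, with Eu-anti-rabbit/APC-anti-GST detection. Kinase step used full-length Sf9-expressed GST-PLK1 (3 ug/mL) and E. coli GST-p53 substrate, 35 min at 37 °C.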

T1 sequence (P53350 whole entry): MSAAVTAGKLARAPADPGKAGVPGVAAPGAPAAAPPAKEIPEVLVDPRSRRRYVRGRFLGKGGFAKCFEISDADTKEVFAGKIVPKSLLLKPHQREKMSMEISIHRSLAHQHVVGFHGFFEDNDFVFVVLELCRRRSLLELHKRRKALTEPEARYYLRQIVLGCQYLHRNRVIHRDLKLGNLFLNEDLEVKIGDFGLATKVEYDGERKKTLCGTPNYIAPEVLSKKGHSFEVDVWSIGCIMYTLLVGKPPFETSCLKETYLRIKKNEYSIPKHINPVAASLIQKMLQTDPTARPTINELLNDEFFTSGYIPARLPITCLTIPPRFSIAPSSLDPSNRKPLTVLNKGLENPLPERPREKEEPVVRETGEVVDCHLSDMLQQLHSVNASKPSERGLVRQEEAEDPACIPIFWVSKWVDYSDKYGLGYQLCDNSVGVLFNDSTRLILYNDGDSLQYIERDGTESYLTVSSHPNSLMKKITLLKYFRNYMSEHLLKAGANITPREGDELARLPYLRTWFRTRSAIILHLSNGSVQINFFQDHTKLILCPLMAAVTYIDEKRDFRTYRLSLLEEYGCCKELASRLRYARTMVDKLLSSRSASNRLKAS

Row | Structure (SMILES) | IC50
1 | COc1cc(C(=O)NCCCN2CCCC2=O)ccc1Nc1ncc2c(n1)N(C1CCCC1)CC(F)(F)C(=O)N2C [Example I-113, 4-(9-cyclopentyl-7,7-difluoro-5-methyl-6-oxo-6,7,8,9-tetrahydro-5H-pyrimido[4,5-b][1,4]diazepin-2-ylamino)-3-methoxy-N-[3-(2-oxo-pyrrolidin-1-yl)-propyl]-benzamide] | 1 to 50 nM
2 | COc1cc(C(=O)NN2CCCCC2)ccc1Nc1ncc2c(n1)N(C1CCCC1)CC(F)(F)C(=O)N2C [Example I-115, 4-(9-cyclopentyl-7,7-difluoro-5-methyl-6-oxo-6,7,8,9-tetrahydro-5H-pyrimido[4,5-b][1,4]diazepin-2-ylamino)-3-methoxy-N-piperidin-1-yl-benzamide] | 1 to 50 nM
3 | COc1cc(C(=O)NN2CCN(C)CC2)ccc1Nc1ncc2c(n1)N(C1CCCC1)CC(F)(F)C(=O)N2C [Example I-118, 4-(9-cyclopentyl-7,7-difluoro-5-methyl-6-oxo-6,7,8,9-tetrahydro-5H-pyrimido[4,5-b][1,4]diazepin-2-ylamino)-3-methoxy-N-(4-methyl-piperazin-1-yl) benzamide] | 1 to 50 nM
4 | COc1cc(C(=O)NCC(O)CN2CCN(C(=O)OC(C)(C)C)CC2)ccc1Nc1ncc2c(n1)N(C1CCCC1)CC(F)(F)C(=O)N2C (centres unmarked) [Example I-120, 4-{3-[4-(9-cyclopentyl-7,7-difluoro-5-methyl-6-oxo-6,7,8,9-tetrahydro-5H-pyrimido[4,5-b][1,4]diazepin-2-ylamino)-3-methoxy-benzoylamino]-2-hydroxy-propyl}-piperazine-1-carboxylic acid tert-butyl ester] | 51 to 500 nM
5 | COc1cc(C(=O)NCC(O)CN2CCNCC2)ccc1Nc1ncc2c(n1)N(C1CCCC1)CC(F)(F)C(=O)N2C (centres unmarked) [Example I-121, 4-(9-cyclopentyl-7,7-difluoro-5-methyl-6-oxo-6,7,8,9-tetrahydro-5H-pyrimido[4,5-b][1,4]diazepin-2-ylamino)-N-(2-hydroxy-3-piperazin-1-yl-propyl)-3-methoxy-benzamide] | 1 to 50 nM
6 | CCN(CC)CCCNC(=O)c1ccc(Nc2ncc3c(n2)N(C2CCCC2)CC(F)(F)C(=O)N3C)c(OC)c1 [Example I-123, 4-(9-cyclopentyl-7,7-difluoro-5-methyl-6-oxo-6,7,8,9-tetrahydro-5H-pyrimido[4,5-b][1,4]diazepin-2-ylamino)-N-(3-diethylamino-propyl)-3-methoxy-benzamide] | 1 to 50 nM
7 | COc1cc(C(=O)N(C)C)ccc1Nc1ncc2c(n1)N(C1CCCC1)CC(F)(F)C(=O)N2C [Example I-125, 4-(9-cyclopentyl-7,7-difluoro-5-methyl-6-oxo-6,7,8,9-tetrahydro-5H-pyrimido[4,5-b][1,4]diazepin-2-ylamino)-3-methoxy-N,N-dimethyl-benzamide] | 1 to 50 nM
8 | COc1cc(C(=O)N2CCCCC2)ccc1Nc1ncc2c(n1)N(C1CCCC1)CC(F)(F)C(=O)N2C [Example I-126, 9-cyclopentyl-7,7-difluoro-2-[2-methoxy-4-(piperidine-1-carbonyl)-phenylamino]-5-methyl-5,7,8,9-tetrahydro-pyrimido[4,5-b][1,4]diazepin-6-one] | 51 to 500 nM
9 | COc1cc(C(=O)N2CCOCC2)ccc1Nc1ncc2c(n1)N(C1CCCC1)CC(F)(F)C(=O)N2C [Example I-127, 9-cyclopentyl-7,7-difluoro-2-[2-methoxy-4-(morpholine-4-carbonyl)-phenylamino]-5-methyl-5,7,8,9-tetrahydro-pyrimido[4,5-b][1,4]diazepin-6-one] | 1 to 50 nM
10 | COc1cc(C(=O)N2CCN(C)CC2)ccc1Nc1ncc2c(n1)N(C1CCCC1)CC(F)(F)C(=O)N2C [Example I-128, 9-cyclopentyl-7,7-difluoro-2-[2-methoxy-4-(4-methyl-piperazine-1-carbonyl)-phenylamino]-5-methyl-5,7,8,9-tetrahydro-pyrimido[4,5-b][1,4]diazepin-6-one] | 1 to 50 nM
11 | COc1cc(C(=O)Nc2ccncc2)ccc1Nc1ncc2c(n1)N(C1CCCC1)CC(F)(F)C(=O)N2C [Example I-129, 4-(9-cyclopentyl-7,7-difluoro-5-methyl-6-oxo-6,7,8,9-tetrahydro-5H-pyrimido[4,5-b][1,4]diazepin-2-ylamino)-3-methoxy-N-pyridin-4-yl-benzamide] | 1 to 50 nM
12 | COc1cc(C(=O)Nc2cccnc2)ccc1Nc1ncc2c(n1)N(C1CCCC1)CC(F)(F)C(=O)N2C [Example I-130, 4-(9-cyclopentyl-7,7-difluoro-5-methyl-6-oxo-6,7,8,9-tetrahydro-5H-pyrimido[4,5-b][1,4]diazepin-2-ylamino)-3-methoxy-N-pyridin-3-yl-benzamide] | 1 to 50 nM
13 | NC(=O)c1ccc(Nc2ncc3c(n2)N(C2CCCC2)CC(F)(F)C(=O)N3)cc1 [Example I-132, 4-(9-cyclopentyl-7,7-difluoro-6-oxo-6,7,8,9-tetrahydro-5H-pyrimido[4,5-b][1,4]diazepin-2-ylamino)-benzamide] | > 5000 nM

Next, values leading:

Row | IC50 | Structure (SMILES)
14 | 1 to 50 nM | COc1cc(C(=O)NCCC2CCCN2C)ccc1Nc1ncc2c(n1)N(C1CCCC1)CC(F)(F)C(=O)N2C (centres unmarked) [Example I-112, 4-(9-cyclopentyl-7,7-difluoro-5-methyl-6-oxo-6,7,8,9-tetrahydro-5H-pyrimido[4,5-b][1,4]diazepin-2-ylamino)-3-methoxy-N-[2-(1-methyl-pyrrolidin-2-yl)-ethyl]-benzamide]
15 | 1 to 50 nM | COc1cc(C(=O)NCCN2CCCCC2)ccc1Nc1ncc2c(n1)N(C1CCCC1)CC(F)(F)C(=O)N2C [Example I-114, 4-(9-cyclopentyl-7,7-difluoro-5-methyl-6-oxo-6,7,8,9-tetrahydro-5H-pyrimido[4,5-b][1,4]diazepin-2-ylamino)-3-methoxy-N-(2-piperidin-1-yl-ethyl)-benzamide]
16 | 1 to 50 nM | COc1cc(C(=O)NCCc2ccccn2)ccc1Nc1ncc2c(n1)N(C1CCCC1)CC(F)(F)C(=O)N2C [Example I-116, 4-(9-cyclopentyl-7,7-difluoro-5-methyl-6-oxo-6,7,8,9-tetrahydro-5H-pyrimido[4,5-b][1,4]diazepin-2-ylamino)-3-methoxy-N-(2-pyridin-2-yl-ethyl)-benzamide]
17 | 1 to 50 nM | COc1cc(C(=O)NCCN2CCOCC2)ccc1Nc1ncc2c(n1)N(C1CCCC1)CC(F)(F)C(=O)N2C [Example I-117, 4-(9-cyclopentyl-7,7-difluoro-5-methyl-6-oxo-6,7,8,9-tetrahydro-5H-pyrimido[4,5-b][1,4]diazepin-2-ylamino)-3-methoxy-N-(2-morpholin-4-yl-ethyl)-benzamide]
18 | 51 to 500 nM | COc1cc(C(=O)NCCNc2ccccc2)ccc1Nc1ncc2c(n1)N(C1CCCC1)CC(F)(F)C(=O)N2C [Example I-119, 4-(9-cyclopentyl-7,7-difluoro-5-methyl-6-oxo-6,7,8,9-tetrahydro-5H-pyrimido[4,5-b][1,4]diazepin-2-ylamino)-3-methoxy-N-(2-phenylamino-ethyl)-benzamide]
19 | 1 to 50 nM | COc1cc(C(=O)NC2CCN(Cc3ccccc3)CC2)ccc1Nc1ncc2c(n1)N(C1CCCC1)CC(F)(F)C(=O)N2C [Example I-122, N-(1-benzyl-piperidin-4-yl)-4-(9-cyclopentyl-7,7-difluoro-5-methyl-6-oxo-6,7,8,9-tetrahydro-5H-pyrimido[4,5-b][1,4]diazepin-2-ylamino)-3-methoxy-benzamide]
20 | 1 to 50 nM | COc1cc(C(=O)NC2CCOCC2)ccc1Nc1ncc2c(n1)N(C1CCCC1)CC(F)(F)C(=O)N2C [Example I-124]
